Assay results published in patent publication US20220233503A1, “METHODS OF TREATING SEPSIS WITH SYNAPTIC VESICLE 2A AND/OR 2B BINDING CHEMICAL ENTITIES” (INSTITUT PASTEUR, priority 2016, published 2022).
Like-named read-outs stand apart in the source and are kept apart here.

What was measured:
[1] = tested on: Inducible NO synthase gene (inos); format: cell-based, murine; conditions: 24 hours
Description: NO: 53) and anti-sense primer:[…] NO: 54). […] ID NO: 55) and anti-sense primer […] NO: 56). […] NO: 57) and anti-sense primer:[…] NO: 58).

[2] = tested on: murine primary monocytic cells; assay: Nitric Oxide production in primary monocytic cells exposed to LPS; format: cell-based; conditions: activated murine monocytic cells, LPS 10 μg/mL, cell culture supernatant, dose effect relationship
Description: LPS exposure increased NO production at a dose of 10 μg/mL after 24 exposure in cell culture supernatant.

[3] = tested on: CLP mice; assay: Fear conditioning test after sepsis; format: in vivo
Description: Comportemental tests: Every comportemental tests were started 15 days after sepsis induction. The experimentator was blinded to the experimental group.
Fear conditioning. Mice underwent the classical fear conditioning test with a cued stimulus (auditory tone) and an uncued stimulus (electric shock). During two consecutive conditioning trials, 2 minutes resting followed by a 48s tone ([…] tone, 60 db) and 5 electrical footshocks of 2 joules during 2 seconds. Twenty four hours after conditioning, mice underwent the fear memory recall after exposition to a contextual stimulus (shock cage in the same configuration without auditory tone) or an auditory stimulus (Auditory tone in a different cage with a vanilla artificial odor). Freezing was evaluated for 2 seconds every 8 seconds and was defined as the absence of movement of the mouse with tail erection. Percentage of 10 seconds period freezing was reported to the total amount of freezing.

[4] = tested on: CLP mice; assay: Splash test after sepsis; format: in vivo; conditions: levetiracetam vs placebo treated CLP mice
Description: Splash test: Mice were placed in a new cage 45 minutes before testing in the experimental room. They were then held onto a grid and 200 μl of sucrose 10% solution was spray on their back's fur. They were then placed in the home cage for 5 minutes. The latency before the first time mice groomed, the number of cleaning sessions and the total amount of time spent cleaning during the 5 minute test were measured. Mice were then placed back in their cage. Datas are presented as Mean±SEM.
FIG. 2: Innate anxiety behavior and depressive phenotype was investigated with the elevated plus maze and splash test.

CC[C@@H](C(N)=O)N1CCCC1=O (single isomer, unassigned) [levetiracetam]
inos expression ([1]; high dose LPS challenge): failed to modulate | inos expression ([1]; high dose levetiracetam, low dose LPS challenge): lowered | production of Nitric Oxide [2]: reduced | motor response to electric shock during conditioning period ([3]; between groups): did not differ | auditory freezing time ([3]; levetiracetam treated vs placebo treated CLP mice, p=0,024): lower | depressive phenotype (splash test) [4]: No difference
